Data taken from ChEMBL document CHEMBL6182916, “Unexpected Discovery of a Novel Triphenylphosphonium Alkylalcohol That Triggers Cancer Cell Death via Mitophagy and Ferroptosis” (J Med Chem, 2025).
Calls of active or inactive are those of the source. The calls are words filed in the database; no cut-off is given here.

Legend:
[1] = Antiproliferative activity against HEK293T cells assessed as inhibition of cell growth measured after 72 hrs by MTT assay; assay type: toxicity, cell-based, HEK-293T; conditions: human
[2] = Antiproliferative activity against human BEAS-2B cells assessed as inhibition of cell growth measured after 72 hrs by MTT assay; assay type: toxicity, cell-based
MCF7 = assay: Antiproliferative activity against human MCF7 cells assessed as inhibition of cell growth measured after 72 hrs by MTT assay; assay type: functional, cell-based; conditions: MCF7, 72 h
[3] = tested on: Osimertinib-resistant NCI-H1975 cell; assay: Antiproliferative activity against human Osimertinib-resistant NCI-H1975 cell assessed as inhibition of cell growth measured after 72 hrs by MTT assay; assay type: functional, cell-based
Mitochondrial membrane = assay: Induction of mitochondrial membrane depolarization in human BEAS-2B cells assessed as increase in JC-1 monomer ratio at 0.25 to 0.5 uM incubated for 4 hrs by JC-1 staining based confocal microscopy analysis; assay type: cell membranes; conditions: dose 0.25-0.5 µM
HCC827 [4] = assay: Induction of mitochondrial dysfunction in human HCC827 cells assessed as suppression of basal respiration incubated for 4 hrs by Seahorse XF96 extracellular flux analyzer; assay type: functional, cell-based; conditions: dose 0.125-5 µM
HCC827 [5] = assay: Induction of mitochondrial dysfunction in human HCC827 cells assessed as suppression of maximal oxygen consumption rate incubated for 4 hrs by Seahorse XF96 extracellular flux analyzer; assay type: functional, cell-based; conditions: dose 0.125-5 µM
HCC827 [6] = assay: Downregulation of HK-2 expression level in human HCC827 cells incubated for 24 hrs by Western blot analysis; assay type: functional, cell-based; conditions: dose 0.25-0.5 µM
HCC827 [7] = assay: Downregulation of VDAC1 expression level in human HCC827 cells 0.5 uM by Western blot analysis; assay type: functional, cell-based; conditions: time 3-24 hrs
HCC827 [8] = assay: Downregulation of HK-2 expression level in human HCC827 cells 0.5 uM incubated for 3 to 24 hrs in presence of BFA by Western blot analysis; assay type: functional, cell-based; conditions: time 3-24 hrs
HCC827 [9] = assay: Downregulation of TIMM23 expression level in human HCC827 cells incubated for 24 hrs by Western blot analysis; assay type: functional, cell-based; conditions: dose 0.25-0.5 µM
HCC827 [10] = assay: Downregulation of TIMM23 expression level in human HCC827 cells at 0.5 uM incubated for 24 hrs in presence of Baf A1 by Western blot analysis; assay type: functional, cell-based
HEK-293T [11] = assay: Downregulation of TIMM23 expression level in human HEK293T cells harbouring PINK knockout at 0.25 to 0.5 uM; assay type: functional, cell-based; conditions: dose 0.25-0.5 µM
HCC827 [12] = assay: Induction of mitochondrial dysfunction in human HCC827 cells assessed as appearance of vacuoles with damaged mitochondria at 1 uM after 24 hrs by TEM analysis; assay type: functional, cell-based
HCC827 [13] = assay: Induction of cell cycle arrest in human HCC827 assessed as increase in p21 expression level at 0.25 to 5 uM measured after 24 hrs by Western blot analysis; assay type: functional, cell-based; conditions: dose 0.25-5 µM
HCC827 [14] = assay: Induction of cell cycle arrest in human HCC827 cells assessed as accumulation of cells at G1 phase incubated for 24 hrs by PI staining based flow cytometry analysis; assay type: functional; conditions: dose 0.1-0.4 µM
HCC827 [15] = assay: Induction of ROS generation in human HCC827 cells assessed as green fluorescence intensity at 1 uM incubated for 24 hrs by DCFH-DA staining based by absorbance based laser confocal microscopic analysis; assay type: functional, cell-based
HCC827 [16] = assay: Induction of ROS generation in human HCC827 cells at 1 uM incubated for 4 hrs in presence of VC by DCFH-DA staining based by absorbance based laser confocal microscopic analysis; assay type: functional, cell-based
HCC827 [17] = assay: Induction of ferroptosis in human HCC827 cells assessed as decrease in GPX4 expression incubated for 24 hrs; assay type: functional, cell-based; conditions: dose 0.25-0.5 µM
HCC827 [18] = assay: Induction of apoptosis in human HCC827 cells assessed as viable cells at 0.25 uM measured after 48 hrs by annexin V and PI staining based flow cytometry analysis (reference value: 96.74%); assay type: functional; conditions: read-out: Activity
HCC827 [19] = assay: Induction of apoptosis in human HCC827 cells assessed as viable cells at 0.5 uM measured after 48 hrs by annexin V and PI staining based flow cytometry analysis (reference value: 96.74%); assay type: functional; conditions: read-out: Activity
HCC827 [20] = assay: Induction of apoptosis in human HCC827 cells assessed as early apoptotic cells at 1 uM measured after 48 hrs by annexin V and PI staining based flow cytometry analysis (reference value: 0.70%); assay type: functional
HCC827 [21] = assay: Induction of apoptosis in human HCC827 cells assessed as viable cells at 1 uM measured after 36 hrs by annexin V and PI staining based flow cytometry analysis (reference value: 95.10%); assay type: functional; conditions: read-out: Activity
HCC827 [22] = assay: Induction of apoptosis in human HCC827 cells assessed as late apoptotic cells at 1 uM measured after 48 hrs by annexin V and PI staining based flow cytometry analysis (reference value: 2.18%); assay type: functional
HCC827 [23] = assay: Induction of apoptosis in human HCC827 cells assessed as necrotic cells at 1 uM measured after 36 hrs by annexin V and PI staining based flow cytometry analysis (Rvb =0.84%); assay type: functional
HCC827 [24] = assay: Antiproliferative activity against human HCC827 cells assessed as cell viability preincubated with FMK followed by compound addition and measured after 48 hrs by MTT assay; assay type: functional, cell-based
HCC827 [25] = assay: Antiproliferative activity against human HCC827 cells assessed as cell viability preincubated with Nec followed by compound addition and measured after 48 hrs by MTT assay; assay type: functional, cell-based
HCC827 [26] = assay: Antiproliferative activity against human HCC827 cells assessed as cell viability at 1 uM measured after 48 hrs in presence of SAS by MTT assay relative to control; assay type: functional; conditions: read-out: Activity
HCC827 [27] = assay: Effect on UQCRC2 expression in human HCC827 cells at 0.25 to 0.5 uM; assay type: functional, cell-based; conditions: dose 0.25-0.5 µM
HEK-293T [28] = assay: Inhibition of colony formation in HEK293T cells at 0.05 to 0.1 uM incubated for 72 hrs by crystal violet staining based analysis; assay type: functional, cell-based; conditions: Homo sapiens, dose 0.05-0.1 µM
[29] = Toxicity in female BALB/c mouse assessed as histopathological changes in kidney at 30 mg/kg, ip measured for 7 days by H and E staining based analysis; assay type: organism-based; conditions: in vivo, 168 h, time 7 day
[30] = Toxicity in male Kunming mouse assessed as change in body weight at 50 mg/kg, ip measured every two days for 7 days; assay type: organism-based; conditions: in vivo, 168 h, time 7 day
[31] = Toxicity in female Kunming mouse assessed as change in body weight at 50 mg/kg, ip measured every two days for 7 days; assay type: organism-based; conditions: in vivo, 168 h, time 7 day
[32] = Toxicity in female Kunming mouse assessed as animal death at 70 mg/kg, ip measured every two days for 7 days; assay type: organism-based; conditions: in vivo, 168 h, time 7 day
[33] = Toxicity in female nude mouse assessed as drug tolerance at 5 to 10 mg/kg, ip measured after 14 days; assay type: organism-based; conditions: in vivo, 336 h, dose 5-10 mg/kg, time 14 day
[34] = Toxicity in female nude mouse assessed as effect om weight loss at 5 to 10 mg/kg, ip measured after 14 days; assay type: organism-based; conditions: in vivo, 336 h, dose 5-10 mg/kg, time 14 day
HCC827 [35] = assay: Antimetastatic activity against human HCC827 cells xenografted in female nude mouse model assessed as decrease in snail level at 5 to 10 mg/kg, ip by Western blot analysis; assay type: functional, organism-based; conditions: dose 5-10 mg/kg
HeLa [36] = assay: Induction of mitophagy in human HeLa cells harbouring mCherry-GFP tag assessed as visible mCherry fluorescence at 0.5 uM incubated for 24 hrs by confocal microscopy analysis; assay type: functional, cell-based
HeLa [37] = assay: Induction of mitophagy in human HeLa cells assessed as colocalization of mitochondria and lysosomes at 0.5 uM by mitoGFP staining based confocal microscopy analysis; assay type: functional, cell-based

Cc1ccc([P+](CCCCCCCCCCO)(c2ccc(C)cc2)c2ccc(C)cc2)cc1.[Br-]
IC50 at 72 h [1]: 1520 nM
IC50 at 72 h [2]: 1420 nM
IC50 (MCF7): 160 nM
IC50 [3]: 230 nM
Activity (Mitochondrial membrane): inactive
Activity (HCC827 [4]): Dose-dependent-effect
Activity (HCC827 [5]): Dose-dependent-effect
Activity (HCC827 [6]): Dose-dependent-effect
Activity (HCC827 [7]): Time-dependent-effect
Activity (HCC827 [8]): inactive
Activity (HCC827 [9]): Dose-dependent-effect
Activity (HCC827 [10]): inactive
Activity (HEK-293T [11]): inactive
Activity (HCC827 [12]): Active
Activity (HCC827 [13]): Active
Activity (HCC827 [14]): Dose-dependent-effect
Activity (HCC827 [15]): Active
Activity (HCC827 [16]): inactive
Activity (HCC827 [17]): Dose-dependent-effect
viability at 0.25 µM (HCC827 [18]): 92.6%
viability at 0.5 µM (HCC827 [19]): 88.5%
Activity (HCC827 [20]): 5.85%
viability at 1 µM (HCC827 [21]): 98.5%
Activity (HCC827 [22]): 0.75%
Activity (HCC827 [23]): 0.96%
IC50 (HCC827 [24]): 110 nM
IC50 (HCC827 [25]): 130 nM
viability at 1 µM (HCC827 [26]): 7.48%
Activity (HCC827 [27]): Active
inhibition (HEK-293T [28]): Minimal_effect
Activity [29]: Non-toxic
Activity [30]: Toxic
Activity [31]: Toxic
Activity [32]: Toxic
Activity [33]: Non-toxic
Activity [34]: Non-toxic
Activity (HCC827 [35]): Active
Activity (HeLa [36]): Active
Activity (HeLa [37]): Active
